Values joined by “and” are separate entries in the source; they are usually repeats but may differ in a detail not shown here. Equal values may be shown once. Where a name gives a salt, the structure may show the parent alone.

For the first test, the target named is T1, human p38 kinase alpha (Homo sapiens, UniProt Q16539).
T1 construct: The coding region of the human p38α cDNA was obtained by PCR-amplification from RNA isolated from the human monocyte cell line THP.1; made in house; host or cells: E. coli DH10B
T1 sequence (Q16539 whole entry): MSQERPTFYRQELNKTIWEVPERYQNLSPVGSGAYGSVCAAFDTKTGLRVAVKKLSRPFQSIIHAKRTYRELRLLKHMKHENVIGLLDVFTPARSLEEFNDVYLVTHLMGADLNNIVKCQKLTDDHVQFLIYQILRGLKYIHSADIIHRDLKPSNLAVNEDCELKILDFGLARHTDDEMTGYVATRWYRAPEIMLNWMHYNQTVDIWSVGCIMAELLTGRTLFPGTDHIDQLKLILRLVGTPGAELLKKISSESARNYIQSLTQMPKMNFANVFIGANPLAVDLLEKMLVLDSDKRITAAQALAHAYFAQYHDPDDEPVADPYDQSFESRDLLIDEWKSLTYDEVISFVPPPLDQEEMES
The test is described as follows: In vitro p38 kinase inhibition analysis (PHAS-I 32P-ATP or EGFRP 33P-ATP format). It is filed as biochemical. Particulars: Table 1; compounds of Examples 1-28; one of two in vitro assay methods; 4-methylbenzenesulfonate; read-out: p38α Kinase Inhibition (IC50 in μM). On the procedure: The ability of compounds to inhibit human p38 kinase alpha was evaluated using one of two in vitro assay methods. In the first method, activated human p38 kinase alpha phosphorylates a biotinylated substrate, PHAS-I (phosphorylated heat and acid stable protein-insulin inducible), in the presence of gamma ^32P-ATP (^32P-ATP). PHAS-I was biotinylated before the assay, and provided a means of capturing the substrate which was phosphorylated during the assay. p38 Kinase was activated by MKK6. Compounds were tested in 10 fold serial dilutions over the range of 100 μM to 0.001 μM using 1% DMSO. Each concentration of inhibitor was tested in triplicate.
All reactions were carried out in 96 well polypropylene plates. Each reaction well contained 25 mM HEPES pH 7.5, 10 mM magnesium acetate, and 50 μM unlabeled ATP. […] Activated human p38 kinase alpha was used at 1 μg per 50 μl reaction volume, representing a final concentration of 0.3 μM. Gamma ^32P-ATP was used to follow the phosphorylation of PHAS-I. ^32P-ATP has a specific activity of 3000 Ci/mmol, and was used at 1.2 μCi per 50 μl reaction volume. The reaction proceeded either for one hr or overnight at 30° C.
Following incubation, 20 μl of reaction mixture was transferred to a high capacity streptavidin coated filter plate (SAM-streptavidin-matrix, Promega) prewetted with phosphate buffered saline. The transferred reaction mix was allowed to contact the streptavidin membrane of the Promega plate for 1-2 min. […] Filter plates were air dried and 20 μl of scintillant was added. The plates were sealed and counted.
A second assay format was alternatively employed. This assay is based on p38 kinase alpha being induced phosphorylation of EGFRP (epidermal growth factor receptor peptide, a 21 mer) in the presence of ^33P-ATP. Compounds were tested in 10 fold serial dilutions over the range of 100 μM to 0.001 μM in 10% DMSO. Each concentration of inhibitor was tested in triplicate. Compounds were evaluated in 50 μl reaction volumes in the presence of 25 mM HEPES pH 7.5, 10 mM magnesium acetate, 4% glycerol, 0.4% bovine serum albumin, 0.4 mM DTT, 50 μM unlabeled ATP, 25 μg EGFRP (200 μM), and 0.05 uCi gamma ^33P-ATP. Reactions were initiated by addition of 0.09 μg of activated, purified human GST-p38 kinase alpha. Activation was carried out using GST-MKK6 (5:1,p38:MKK6) for one hr at 30° C. in the presence of 50 μM ATP. Following incubation for 60 min at room temperature, the reaction was stopped by addition of 150 μl of AG 1×8 resin in 900 mM sodium formate buffer, pH 3.0 (1 volume resin to 2 volumes buffer). The mixture was mixed three times with pipetting. Afterward, the resin was allowed to settle. A total of 50 μl of clarified solution head volume was transferred from the reaction wells to Microlite-2 plates. 150 μl of Microscint 40 was then added to each well of the Microlite plate, and the plate was sealed, mixed, and counted.
Take `C[C@@H](N[C@H]1CC[C@H](c2[nH]nc(-c3ccc(Cl)cc3)c2-c2ccncn2)CC1)c1ccccc1` [Example 2, 4-[3-(4-chlorophenyl)-4-pyrimidin-4-yl-1H-pyrazol-5-yl]-N-[(1R)-1-phenylethyl]-trans-cyclohexanamine 4-methylbenzenesulfonate]: the IC50 was determined as 0.0279 µM.

The test is the same for the next values; noted with them: Table 1; compounds of Examples 1-28; one of two in vitro assay methods; Trifluoroacetate; read-out: p38α Kinase Inhibition (IC50 in μM).
Turning to `OC[C@H]1CCCN1[C@H]1CC[C@H](c2[nH]nc(-c3ccc(Cl)cc3)c2-c2ccncn2)CC1` [Example 9, ((2R)-1-{4-[3-(4-chlorophenyl)-4-pyrimidin-4-yl-1H-pyrazol-5-yl]cyclohexyl)pyrrolidin-2-yl)methanol Trifluoroacetate], the IC50 turned out to be 0.0285 µM.

The test is the same for the next values; noted with them: Table 1; compounds of Examples 1-28; one of two in vitro assay methods; read-out: p38α Kinase Inhibition (IC50 in μM).
In the case of `C[C@@H](N[C@H]1CC[C@H](c2[nH]nc(-c3ccc(Cl)cc3)c2-c2ccncn2)CC1)c1ccccc1` [Example 1, 4-[3-(4-chlorophenyl)-4-pyrimidin-4-yl-1H-pyrazol-5-yl]-N-[(1R)-1-phenylethyl]-trans-cyclohexanamine], the IC50 was 0.0314 µM. On to `CC(C)N[C@H]1CC[C@H](c2[nH]nc(-c3ccc(F)c(F)c3)c2-c2ccncn2)CC1` [Example 13, 4-[3-(3,4-difluorophenyl)-4-pyrimidin-4-yl-1H-pyrazol-5-yl]-N-isopropylcyclohexanamine], for which the IC50 was 0.115 µM.

With `Fc1cc(Cl)ccc1-c1n[nH]c(C2CCNCC2)c1-c1ccncn1` [Example 26, 4-[3-(4-chloro-2-fluorophenyl)-5-piperidin-4-yl-1H-pyrazol-4-yl]pyrimidine], the half-inhibitory concentration (IC50) turned out to be 0.0641 µM.

The same test, now with this note: Table 2; additional pyrazole compounds, Examples 56-169; read-out: p38α Kinase Inhibition (IC50 in μM).
As to `O=C(CO)N1CCC(c2[nH]nc(-c3ccc(Cl)cc3)c2-c2ccnc(O)n2)CC1` [Example 59], the IC50 turned out to be 15.8 µM. On the same count and under the same terms, to `CC(C)(C)OC(=O)N1CCC(c2[nH]nc(-c3ccc(Cl)cc3)c2-c2ccnc(NC3CCCC3)n2)CC1` [Example 140] belongs 0.01 µM. On to `C[C@H](O)C(=O)N1CCC(c2[nH]nc(-c3cccc(C(F)(F)F)c3F)c2-c2ccncn2)CC1` [Example 112], for which the IC50 stood at 5.18 µM. On the same count and under the same terms, as for `C[C@H](N[C@H]1CC[C@H](c2[nH]nc(-c3ccc(Cl)cc3)c2-c2ccncn2)CC1)c1ccccc1` [Example 121], the figure is 0.00856 µM; as for `CN(C)CCNc1nccc(-c2c(-c3ccc(F)c(C(F)(F)F)c3)n[nH]c2C2CCN(C)CC2)n1` [Example 166], 1.1 µM; as for `C[C@@H](N[C@H]1CC[C@@H](c2[nH]nc(-c3ccc(Cl)cc3)c2-c2ccncn2)CC1)c1ccccc1` [Example 122], 0.0449 µM.

Regarding `CN(C)CCNc1nccc(-c2c(-c3ccc(F)c(C(F)(F)F)c3)n[nH]c2C2CCNCC2)n1` [Example 146], the IC50 was found to be 0.261 µM.

On to `Clc1ccc(-c2n[nH]c(C3CCNCC3)c2-c2ccnc(NC3CCN(Cc4ccccc4)CC3)n2)cc1` [Example 150], for which the IC50 was 0.034 µM. `O=C(CO)N1CCC(c2[nH]nc(-c3cccc(Cl)c3F)c2-c2ccncn2)CC1` [Example 106]: the IC50 was 0.297 µM. As for `CCN1CCN([C@H]2CC[C@H](c3[nH]nc(-c4ccc(Cl)cc4)c3-c3ccncn3)CC2)CC1` [Example 58], the IC50 came to 0.0649 µM. The same measure, in the same setting: as for `CN(C)CCNc1nccc(-c2c(-c3cccc(Cl)c3)n[nH]c2C2CCN(C(=O)CO)CC2)n1` [Example 117], the figure is 0.699 µM; as for `CN1CCC(c2[nH]nc(-c3ccc(Cl)cc3)c2-c2ccnc(NC3CCCC3)n2)CC1` [Example 148], 0.0148 µM. As for `CN1CCC(c2[nH]nc(-c3ccc(F)c(C(F)(F)F)c3)c2-c2ccnc(NC3CCCC3)n2)CC1` [Example 167], the concentration for half-maximal inhibition (IC50) turned out to be 0.0063 µM. Consider `O=C(CO)N1CCC(c2[nH]nc(-c3cccc(OC(F)(F)F)c3)c2-c2ccncn2)CC1` [Example 83], for which the IC50 came out at 25.7 µM. For `Clc1ccc(-c2n[nH]c(C3CCNCC3)c2-c2ccnc(NC3CCCC3)n2)cc1` [Example 141], the IC50 came to 0.01 µM. Same read-out and setting: to `CCc1ccc(-c2n[nH]c(C3CCN(C(=O)CO)CC3)c2-c2ccncn2)cc1` [Example 82] belongs 5.85 µM; to `Cc1c(Cl)cccc1-c1n[nH]c(C2CCN(C(=O)CO)CC2)c1-c1ccncn1` [Example 88], 0.974 µM.

In the case of `CS(=O)(=O)N1CCC(c2[nH]nc(-c3ccc(Cl)cc3F)c2-c2ccnc(NC3CCCC3)n2)CC1` [Example 159], the IC50 was found to be 0.0047 µM. As to `O=C(CO)N1CCC(c2[nH]nc(-c3cc(Cl)cc(Cl)c3)c2-c2ccncn2)CC1` [Example 75], the IC50 came out at 3.39 µM.

`O=C(CO)N1CCC(c2[nH]nc(-c3ccc(Cl)cc3)c2-c2ccnc(O[C@H]3CCOC3)n2)CC1` [Example 92]: the IC50 is 0.14 µM. In the case of `CN1CCC(c2[nH]nc(-c3ccc(Cl)cc3F)c2-c2ccnc(NC3CCCC3)n2)CC1` [Example 153], the IC50 worked out at 0.0182 µM. Consider `O=C(CO)N1CCC(c2[nH]nc(-c3ccc(Cl)c(C(F)(F)F)c3)c2-c2ccncn2)CC1` [Example 78], for which the IC50 came out at 3.16 µM. On to `O=C(CO)N1CCC(c2[nH]nc(-c3c(F)cccc3F)c2-c2ccncn2)CC1` [Example 81], for which the IC50 is 4.82 µM. Regarding `CC(C)C(N)C(=O)OCC(=O)N1CCC(c2[nH]nc(-c3ccc(Cl)cc3)c2-c2ccncn2)CC1` (stereo not shown) [Example 57], the IC50 is 0.0285 µM.

Consider `O=C(CO)N1CCC(c2[nH]nc(-c3cccc(F)c3F)c2-c2ccncn2)CC1` [Example 80], for which the IC50 amounted to 2.45 µM.

Turning to `COCCOCC(=O)N1CCC(c2[nH]nc(-c3ccc(Cl)cc3)c2-c2ccncn2)CC1` [Example 61], the IC50 was 0.764 µM. In the case of `CSc1nccc(-c2c(-c3ccc(Cl)cc3)n[nH]c2C2CCN(C(=O)COC(C)=O)CC2)n1` [Example 93], the IC50 turned out to be 0.297 µM. Turning to `COc1cccc(-c2n[nH]c(C3CCN(C(=O)CO)CC3)c2-c2ccncn2)c1` [Example 85], the IC50 came out at 2.1 µM.

In the case of `CC(=O)OCC(=O)N1CCC(c2[nH]nc(-c3ccc(Cl)cc3)c2-c2ccnc(S(C)(=O)=O)n2)CC1` [Example 95], the IC50 stood at 3.31 µM. On to `Cc1ccc(-c2n[nH]c(C3CCN(C(=O)CO)CC3)c2-c2ccncn2)cc1Cl` [Example 71], for which the IC50 turned out to be 0.444 µM.

On to `O=C(CO)N1CCC(c2[nH]nc(-c3ccc(Cl)cc3)c2-c2ccnc(O[C@@H]3CCOC3)n2)CC1` [Example 90], for which the IC50 is 0.34 µM. With `CN(C)CCOc1nccc(-c2c(-c3ccc(Cl)cc3F)n[nH]c2C2CCNCC2)n1` [Example 156], the IC50 is 0.637 µM and 0.627 µM. Take `CC(C)(C)OC(=O)N1CCC(c2[nH]nc(-c3ccc(Cl)cc3)c2-c2ccnc(O[C@@H]3CCOC3)n2)CC1` [Example 132]: the IC50 came to 3.34 µM. As to `C[C@@H](N[C@H]1CC[C@H](c2[nH]nc(-c3ccc(Cl)cc3)c2-c2ccncn2)CC1)c1ccccc1` [Example 124], the 50% inhibitory concentration (IC50) is 0.0452 µM. Take `COc1ccc(-c2n[nH]c(C3CCN(C(=O)CO)CC3)c2-c2ccncn2)cc1` [Example 84]: the IC50 was 1.5 µM.

Take `O=C(CO)N1CCC(c2[nH]nc(-c3cc(F)cc(Cl)c3)c2-c2ccncn2)CC1` [Example 104]: the IC50 turned out to be 1.1 µM. As for `O=C(CO)N1CCC(c2[nH]nc(-c3cc(C(F)(F)F)ccc3F)c2-c2ccncn2)CC1` [Example 102], the IC50 was 0.454 µM. Take `CC(C)(C)OC(=O)N1CCC(c2[nH]nc(-c3ccc(Cl)cc3)c2-c2ccnc(OCCN3CCOCC3)n2)CC1` [Example 136]: the IC50 was 16.9 µM.

(Values after patent US20040082551A1, “Novel pyrazoles and their use as p38 kinase inhibitors” (priority 2002, published 2004).)
